Experimental data: patent US6498275B1, “Use of compounds for the elevation of pyruvate dehydrogenase activity” (AstraZeneca AB, priority 1998, dated 2002)

Legend:
[1] = cited from earlier work
PDH = details: cited from earlier work

melting point [°C] | SMILES | further results
155.5 to 156.5 | CC(C)(O)C(=O)Nc1ccc(S(=O)(=O)c2ccccc2)cc1F | –
118 to 120 | C[S+]([O-])c1ccccc1S(=O)(=O)c1ccc(NC(=O)[C@@](C)(O)C(F)(F)F)c(Cl)c1 (stereo partly shown) | –
205 to 207 | CC(=O)Nc1cc(S(=O)(=O)c2ccccc2)ccc1NC(=O)C(C)(O)C(F)(F)F (stereo not shown) | –
91 to 92.5 | CC(C)(O)C(=O)Nc1ccc(Sc2ccccc2)cc1F | –
138 to 140 | CC(C)(O)C(=O)Nc1ccc(Sc2ccc(NS(C)(=O)=O)cc2)cc1Cl | –
68 to 70 | C[C@@](O)(C(=O)Nc1ccc(S(=O)(=O)c2ccccc2NCCO)cc1Cl)C(F)(F)F | –
– | O=C(O)C(Cl)Cl [DCA, dichloroacetic acid] | glycaemia ([1]; Stacpoole et al. 1978): reducing glycaemia; plasma glucose ([1]; after repeated administration (Evans and Stacpoole 1982)): significant decrease in plasma glucose; activity of PDH (PDH; after acute administration in animals (Vary et al. 1988)): increases the activity of PDH; proportion of PDH in its active form (PDH; single administration, 150 mg/kg, intraperitoneally (Vary et al. 1988)): increased the proportion of PDH in its active form
